Publication PMC6299481, “Deciphering the Evolution of Cephalosporin Resistance to Ceftolozane-Tazobactam in Pseudomonas aeruginosa” (mBio, 2018)
Read-outs that look alike come from different tables or passages of the source.

Legend:
E. coli DH10B pBC SK = assay: MIC, MH agar dilution (CLSI); format: cell-based; settings: Escherichia coli, DH10BPBCSK, β-lactam alone
Procedure: (§1) Variant genes were synthesized into the pBC SK (-) vector by Celtek Bioscience (Franklin, TN). Mueller-Hinton (MH) agar-dilution MIC measurements were performed against isogenic transformants producing PDC-3 and nine variants of PDC-3 in pBC SK (-) according to the Clinical and Laboratory Standards Institute (CLSI) guidelines as previously described ([39], [48]). Avibactam, LP-06, and S02030 were tested at a constant 4 µg/ml in combination with various concentrations of ceftazidime. Piperacillin-tazobactam was maintained at a ratio of 8 piperacillin to 1 tazobactam. Ceftolozane-tazobactam was maintained at a ratio of 2 ceftolozane to 1 tazobactam. The MICs are reported as the concentrations at which bacterial growth was no longer observed. All MIC measurements were performed at least three times.

[1] = tested on: E. coli DH10B pBC SK blaPDC-3 V213G; assay: MIC, MH agar dilution (CLSI); format: cell-based; settings: Escherichia coli, β-lactam alone
Procedure: as §1

[2] = tested on: E. coli DH10B pBC SK blaPDC-3 G216R; assay: MIC, MH agar dilution (CLSI); format: cell-based; settings: Escherichia coli, β-lactam alone
Procedure: as §1

P. aeruginosa PAO1 = assay: MIC, MH agar dilution (CLSI); format: cell-based; settings: Pseudomonas aeruginosa; β-lactam alone; P. aeruginosa PAO1, control strain expressing PDC-1
Procedure: as §1

[3] = tested on: E. coli DH10B pBC SK blaPDC-3 G216A; assay: MIC, MH agar dilution (CLSI); format: cell-based; settings: Escherichia coli; β-lactam alone; E. coli DH10B pBC SK blaPDC-3 G216A (Table 2 prints G216)
Procedure: as §1

[4] = tested on: E. coli DH10B pBC SK blaPDC-3; assay: MIC, MH agar dilution (CLSI); format: cell-based; settings: Escherichia coli
Procedure: as §1

P. aeruginosa 18SH = assay: MIC, MH agar dilution (CLSI); format: cell-based; settings: Pseudomonas aeruginosa, β-lactam alone, control strain expressing PDC-3
Procedure: as §1

[5] = tested on: E. coli DH10B pBC SK blaPDC-3 V213A; assay: MIC, MH agar dilution (CLSI); format: cell-based; settings: Escherichia coli, β-lactam alone
Procedure: as §1

[6] = tested on: E. coli DH10B pBC SK blaPDC-3 E221G; assay: MIC, MH agar dilution (CLSI); format: cell-based; settings: Escherichia coli, β-lactam alone
Procedure: as §1

[7] = tested on: E. coli DH10B pBC SK blaPDC-3 Y223A; assay: MIC, MH agar dilution (CLSI); format: cell-based; settings: Escherichia coli, β-lactam alone
Procedure: as §1

[8] = tested on: E. coli DH10B pBC SK blaPDC-1; assay: MIC, MH agar dilution (CLSI); format: cell-based; settings: Escherichia coli, β-lactam alone
Procedure: as §1

E. coli DH10B = assay: MIC, MH agar dilution (CLSI); format: cell-based; settings: Escherichia coli, β-lactam alone
Procedure: as §1

[9] = tested on: E. coli DH10B pBC SK blaPDC-3 E221A; assay: MIC, MH agar dilution (CLSI); format: cell-based; settings: Escherichia coli; β-lactam alone; E. coli DH10B pBC SK blaPDC-3 E221A (Table 2 prints E221)
Procedure: as §1

[10] = tested on: E. coli DH10B pBC SK blaPDC-3 Y223H; assay: MIC, MH agar dilution (CLSI); format: cell-based; settings: Escherichia coli, β-lactam alone
Procedure: as §1

[11] = tested on: E. coli DH10B pBC SK blaPDC-3 E221K; assay: MIC, MH agar dilution (CLSI); format: cell-based, Escherichia coli; settings: for MIC: Escherichia coli; for fold increase in MIC relative to the wild-type strain: E221K variant strain versus PDC-3 strain, E. coli DH10B
Procedure: as §1

PDC-3 β-lactamase [12] = target: T1, PDC-3 β-lactamase (Pseudomonas aeruginosa, UniProt P24735, T105A); assay: Competitive inhibition assay with nitrocefin as reporter substrate (Ki app); format: biochemical; settings: for Ki: 150 μM nitrocefin reporter substrate; for fold difference in Ki app between ceftolozane and ceftazidime: ceftolozane Ki app higher than ceftazidime Ki app
T1 construct: produces the corresponding PDC-3 protein without its signal peptide; made in house; host or cells: E. coli Origami 2 DE3, pET24a (+) blaPDC-3
Procedure: For competitive inhibition assays used to determine Ki app, 150 μM nitrocefin was used as the reporter substrate with increasing concentrations of ceftazidime or ceftolozane. Initial velocities were plotted against concentrations of ceftazidime or ceftolozane. Ki app obs were determined by dividing the slope by the y intercept. Ki app was calculated by correcting Ki app obs for nitrocefin affinity and concentration (equation 3). (3) Ki app=Ki app obs/[1+([NCF]/Km NCF)

[13] = tested on: E. coli DH10B strains expressing PDC-3 variants; assay: MIC, MH agar dilution (CLSI), variant strains taken together; format: cell-based, Escherichia coli; settings: for MICs when paired with avibactam: oxyimino cephalosporin paired with avibactam
Procedure: as §1

[14] = target: T2, E221K variant of PDC-3 β-lactamase (Pseudomonas aeruginosa, UniProt P24735, E247K/T105A); assay: Steady-state hydrolysis kinetics; format: biochemical
T2 construct: produces the corresponding PDC-3 protein without its signal peptide; made in house; host or cells: E. coli Origami 2 DE3, pET24a (+) blaPDC-3-E221K
Procedure: (§2) Steady-state kinetic and inhibitor parameters were determined by using an Agilent 8453 diode array spectrophotometer at room temperature as previously described ([20], [43], [49]). Each assay was performed in 10 mM phosphate-buffered saline (PBS) at pH 7.4 at room temperature (RT = ∼25°C) in a quartz cuvette with a 1-cm path length. Measurements were obtained using ceftolozane and ceftazidime. The kinetic parameters, Vmax and Km, were obtained with a nonlinear least-squares fit of the data (Henri Michaelis-Menten, equation 1) using Origin 7.5VR (OriginLab, Northampton, MA).(1) v=Vmax [S]/Km+[S]

PDC-3 β-lactamase [15] = target: T1, PDC-3 β-lactamase; settings: cited from earlier work; for Km: PDC-3, previously reported value; for kcat: PDC-3, reported value
PDC-3 β-lactamase [16] = target: T1, PDC-3 β-lactamase; assay: Steady-state hydrolysis kinetics; format: biochemical; settings: reporter substrate with PDC-3
Procedure: as §2

[17] = β-lactam alone, E. coli DH10B pBC SK blaPDC-3, read-out: MIC value
[18] = β-lactam alone, E. coli DH10B pBC SK blaPDC-3 E221K, read-out: MIC value
[19] = read-out: MIC value, β-lactam alone, E. coli DH10B pBC SK blaPDC-3
[20] = substrate hydrolysis by E221K, 10 mM PBS pH 7.4, room temperature

Row | Structure (SMILES) | MIC (E. coli DH10B pBC SK) [µg/mL] | MIC [1] [µg/mL] | MIC [2] [µg/mL] | MIC (P. aeruginosa PAO1) [µg/mL] | MIC [3] [µg/mL] | MIC (P. aeruginosa 18SH) [µg/mL] | MIC [5] [µg/mL] | MIC [6] [µg/mL] | MIC [7] [µg/mL] | MIC [8] [µg/mL] | MIC (E. coli DH10B) [µg/mL] | MIC [9] [µg/mL] | MIC [10] [µg/mL] | MIC [4, 19] [µg/mL] | MIC ([11]; read-out: MIC value) [µg/mL] | further results
1 | CC1(C)S[C@@H]2[C@H](NC(=O)[C@H](N)c3ccccc3)C(=O)N2[C@H]1C(=O)O [Ampicillin] | 4 | 1020 | 1020 | 2050 | 1020 | 4100 | 1020 | 512 | 256 | 256 | 4 | 1020 | 512 | – | – | MIC [4, 17]: 256 µg/mL; MIC [11, 18]: 256 µg/mL
2 | C[C@H]1[C@H](NC(=O)/C(=N\OC(C)(C)C(=O)O)c2csc(N)n2)C(=O)N1S(=O)(=O)O [Aztreonam] | 0.125 | 8 | 16 | 4 | 8 | 128 | 8 | 4 | 4 | 0.5 | 0.125 | 4 | 4 | 1 | 8 | –
3 | CO/N=C(\C(=O)N[C@@H]1C(=O)N2C(C(=O)[O-])=C(C[N+]3(C)CCCC3)CS[C@H]12)c1csc(N)n1 [Cefepime] | < 0.06 | 0.125 | 0.25 | 4 | 0.125 | 128 | 0.125 | 0.125 | 0.25 | 0.125 | 0.125 | 0.125 | 0.125 | ≤ 0.06 | 0.25 | –
4 | CO/N=C(\C(=O)N[C@@H]1C(=O)N2C(C(=O)O)=C(COC(C)=O)CS[C@H]12)c1csc(N)n1 [Cefotaxime] | < 0.06 | 16 | 16 | 16 | 8 | > 256 | 16 | 8 | 16 | 8 | < 0.06 | 16 | 8 | 8 | 4 | –
5 | CC(C)(O/N=C(\C(=O)N[C@@H]1C(=O)N2C(C(=O)[O-])=C(C[n+]3ccccc3)CS[C@H]12)c1csc(N)n1)C(=O)O [Ceftazidime] | 0.25 | 16 | 32 | 1 | 16 | 64 | 32 | 32 | 32 | 2 | 0.25 | 8 | 16 | 2 | 64 | fold increase in MIC relative to the wild-type strain [11]: 32 fold; Ki (PDC-3 β-lactamase [12]): 22 µM; fold difference in Ki app between ceftolozane and ceftazidime (PDC-3 β-lactamase [12]): ~60 fold; MICs when paired with avibactam [13]: ≤ 1 mg/L; Km [14, 20]: 174 ± 20 µM; Vmax [14, 20]: 0.9 ± 0.1 µM/s; kcat [14, 20]: 9 ± 1 s⁻¹; Km (PDC-3 β-lactamase [15]; ref 20): 51.7 ± 2.1 µM; Km (PDC-3 β-lactamase [15]; ref 28): 35 µM; kcat (PDC-3 β-lactamase [15]; ref 4): 0.002 s⁻¹; kcat (PDC-3 β-lactamase [15]; ref 28): 0.02 s⁻¹
6 | Cn1c(N)c(NC(=O)NCCN)c[n+]1CC1=C(C(=O)O)N2C(=O)[C@@H](NC(=O)/C(=N\OC(C)(C)C(=O)[O-])c3nsc(N)n3)[C@H]2SC1 [Ceftolozane] | 0.5 | 4 | 8 | 0.5 | 2 | 8 | 4 | 16 | 32 | 0.5 | 0.5 | 2 | 8 | 0.5 | 64 | MIC ([4]; read-out: ceftolozane MIC, PDC-3 strain, Table 2): 0.5 µM; fold increase in MIC relative to the wild-type strain [11]: 128 fold; MIC ([11]; read-out: ceftolozane MIC): 64 µM; Ki (PDC-3 β-lactamase [12]): 1300 µM; fold difference in Ki app between ceftolozane and ceftazidime (PDC-3 β-lactamase [12]): 60 fold; MICs when paired with avibactam [13]: ≤ 1 mg/L; Km [14, 20]: 341 ± 64 µM; Vmax [14, 20]: 1.0 ± 0.1 µM/s; kcat [14, 20]: 10 ± 1 s⁻¹
7 | C[C@@H](O)[C@H]1C(=O)N2C(C(=O)O)=C(SCCN=CN)C[C@H]12 [Imipenem] | 0.25 | 0.5 | 0.5 | 2 | 0.5 | 2 | 0.5 | 0.5 | 0.5 | 0.25 | – | 0.5 | 0.5 | 0.25 | 0.5 | –
8 | CCN1CCN(C(=O)N[C@@H](C(=O)N[C@@H]2C(=O)N3[C@@H]2SC(C)(C)[C@@H]3C(=O)O)c2ccccc2)C(=O)C1=O [Piperacillin] | 2 | 64 | 16 | 4 | 64 | 512 | 64 | 64 | 16 | 16 | 2 | 128 | 32 | – | – | MIC [4, 17]: 16 µg/mL; MIC [11, 18]: 16 µg/mL
9 | O=C(Cc1cccs1)N[C@@H]1C(=O)N2C(C(=O)O)=C(/C=C/c3ccc([N+](=O)[O-])cc3[N+](=O)[O-])CS[C@H]12 [nitrocefin] | – | – | – | – | – | – | – | – | – | – | – | – | – | – | – | Km ([14]; reporter substrate with E221K): 17 ± 3 µM; Km (PDC-3 β-lactamase [16]): 20 ± 2 µM
10 | C[C@]1(Cn2ccnn2)[C@H](C(=O)O)N2C(=O)C[C@H]2S1(=O)=O [tazobactam] | – | – | – | – | – | – | – | – | – | – | – | – | – | – | – | fold attenuation of variant strain MICs compared to single antibiotic ([13]; piperacillin-tazobactam and ceftolozane-tazobactam combinations): 2- to 8 fold
